Results from article PMC3843955 (Antiviral research, 2013).
Several values for one entry are separate records, joined by “and”; a condition that tells them apart may be missing. Equal values may be shown once. Read-outs that look alike come from different tables or passages of the source.

How the values were obtained:
[1] = tested on: MRC-5 fibroblasts; assay: CellTiter-Glo cytotoxicity assay, MRC-5; type: cell-based, human; settings: uninfected MRC-5, ± standard deviation; for Yield inhibition MRC-5 TD50: CellTiter-Glo cytotoxicity assay after 5 d exposure to drugs; for Spread inhibition MRC-5 TD50: CellTiter-Glo cytotoxicity assay after 14 d exposure to drugs
[2] = tested on: MCMV; settings: read-out: EC50 for MCMV, cited from earlier work
[3] = tested on: MCMV; settings: sub-lethal MCMV infection in mice; ref Go et al., 2011; cited from earlier work
[4] = human, in vivo; cited from earlier work
[5] = tested on: HCMV; assay: HCMV inhibition across spread inhibition and yield reduction assays; settings: TD50 versus anti-HCMV EC50

Compound	Yield inhibition MRC-5 TD50 [1]	Spread inhibition MRC-5 TD50 [1] [µM]	EC50 ([2]; ref Go et al., 2011) [µM]	viral load in livers and spleen [3]	peak plasma level [4]	cytotoxicity TD50 fold higher than antiviral EC50 [5]	EC50 ([2]; ref Lembo et al., 2000) [µM]	peak plasma concentration [4] [µM]
O=C(NO)c1ccc(O)c(O)c1 [DX, didox]	256 ± 5.7 µM	146 ± 0.7	10 to 25	failed to decrease viral load in livers and spleen	approximately 300 µM	1.5- to 2 fold and 2 fold	–	–
NC(=O)NO [HU, hydroxyurea]	14,500 ± 5400 µM	4253 ± 701	–	–	–	–	3	264 to 660
N/C(=N\O)c1cc(O)c(O)c(O)c1 [TX, trimidox]	166 ± 57 µM	86 ± 4.2	–	–	–	1.5- to 2 fold and 2 fold	–	–
